# Measured values: patent publication US20220330548A1, “Peptides with Phytosanitary Activities” (Universita' Degli Studi Di Padova, priority 2021, published 2022)
# [ ]: non-standard residue; d: D form. The star is where a group is joined. Octanoyl = CCCCCCCC(=O)*; Aib = CC(C)(N)C(=O)O
# Columns and labels:
# Pyricularia oryzae [1] = assay type: cell-based, Pyricularia oryzae (strain IT10)
# Botrytis cinerea = assay type: cell-based, Botrytis cinerea (strain PM10)
# Fusarium graminearum [2] = assay type: cell-based, Fusarium graminearum (strain 8/1)
# Plasmopara viticola = assay: Infection by P. viticola on vine leaf discs; assay type: in vivo, Plasmopara viticola on vine leaf discs (cv. Glera); conditions: peptide 50 μM, 12 days after inoculation
# Description: Infection tests were performed on vine leaf disks (cv. Glera) of 1 cm in diameter. Twenty leaf discs obtained from randomly collected leaves from different plants were placed with the lower side facing upwards on moistened sterile paper placed in Petri dishes (15 cm diameter). Approximately 0.1 mL of each aqueous solution containing the peptide (50 μM) was distributed on each leaf disc. Aqueous suspensions of P. viticola sporangia, collected from infected vine plants, were diluted to obtain 3-5×10^5 sporangia/mL and distributed on the leaf discs. The plates containing the leaf discs were incubated in the dark at room temperature (22-23° C.). The incidence was calculated 12 days after inoculation as the ratio of the number of sporulating discs to the total number of discs inoculated. Control plates contained water-treated leaf discs. Two or three plates were used for each treatment. The data obtained were statistically analysed by applying the Anova and Bonferroni-Holmes one-way test.
# Fusarium graminearum [3] = test system: Fusarium graminearum; set-up: species or system Fusarium graminearum on ears of wheat; conditions: in vivo
# Fusarium graminearum [4] = assay type: cell-based
# Pyricularia oryzae [5] = test system: Pyricularia oryzae; set-up: species or system Pyricularia oryzae strain IT10 on barley leaves; conditions: in vivo
# Pyricularia oryzae [6] = assay type: cell-based
substance,measurement,setting,value
1-octanoyl-Leu-Aib-Lys(HCl)-Ile-Leu-NH2 [SEQ. ID. No. 10],decrease of growth of Pyricularia oryzae compared to the untreated control,Pyricularia oryzae [1],at least 95%
same,decrease of growth of Botrytis cinerea compared to the untreated control,Botrytis cinerea,at least 95%
same,decrease of growth of Fusarium graminearum compared to the untreated control,Fusarium graminearum [2],at least 95%
1-octanoyl-Aib-Gly-Leu-Aib-Gly-Gly-Leu-Aib-Lys(HCl)-Ile-Lol [SEQ. ID. No. 5],incidence of Plasmopara viticola infection on vine leaf discs,Plasmopara viticola,significantly decreases the P. viticola infection
same,decrease of growth of Botrytis cinerea compared to the untreated control,Botrytis cinerea,at least 95%
1-octanoyl-Aib-Gly-Leu-Aib-Gly-Gly-Leu-Aib-Lys(HCl)-Ile-Leu-NH2 (Octanoyl-[Aib]GL[Aib]GGL[Aib]KIL-NH2; also: Lys9 as HCl salt) [SEQ. ID. No. 6],incidence of Plasmopara viticola infection on vine leaf discs,Plasmopara viticola,significantly decreases the P. viticola infection
1-octanoyl-Aib-Lys(HCl)-Leu-Aib-Lys(HCl)-Gly-Leu-Aib-Lys(HCl)-Ile-Lol [SEQ. ID. No. 1],decrease of infection (infected spikelets) in treated ears compared to untreated control ears,Fusarium graminearum [3],at least 95%
same,further decrease of infection compared with treatment with PEP4 and PEP4-rink,Fusarium graminearum [3],10-30%
same,protection of the ear of wheat against infection caused by Fusarium graminearum,Fusarium graminearum [3],protects the ear of wheat against infection caused by Fusarium graminearum
same,protection of the ear of wheat compared with the known peptide PEP4,Fusarium graminearum [3],greater
same,microscopic observation of Fusarium graminearum after treatment,Fusarium graminearum [4],germination is inhibited and the cytoplasm is agglutinated
same,decrease of infected (lesion) area of barley leaves compared to control leaves,Pyricularia oryzae [5],at least 95%
same,microscopic observation of Pyricularia oryzae spores after treatment,Pyricularia oryzae [6],germination is inhibited and the cytoplasm is agglutinated
same,viability of Pyricularia oryzae spores (autofluorescence of agglutinated cytoplasm),Pyricularia oryzae [6],the cells are no longer viable
